Tests used:
FAK = FAK (Homo sapiens, UniProt Q05397); experiment: FAK kinase activity inhibition, Latha screen analysis; assay type: biochemical
Procedure: FAK protein kinase activity was determined by Latha screen analysis. The compound was dissolved in DMSO and diluted with kinase buffer (25 mM HEPES, pH 7.5, 0.01 mM Triton, 10 mM MgCl2, 0.5 mM EGTA, 0.01% BRIJ-35, 2 mM DTT), 2.5 μL was added to the 384-well plate 4 times the final concentration of the compound (4% DMSO). After adding 5 μL of 2-fold FAK enzyme solution, incubate for 10 minutes at room temperature, and then add 2.5 μL of 4 times substrate (Fluorescein-polyGT and ATP) solution. After incubating for 30 minutes at 25° C., 10 μL of the detection solution (antibody of phosphorylation site 2 nM and EDTA 10 mM) was added to terminate the reaction. The data emitted at […] and emitted at 520 nm was read from Envision, and the luminescence reading data was copied from the Envision program, and the value of the luminescence reading was converted to the percent inhibition by a formula. The conversion rate was converted into inhibition rate data (% inhibition rate=(max−conversion rate)/(max−min)*100). “min” is the control fluorescence reading for the reaction without enzyme: “max” is the fluorescence reading of the sample with DMSO added as a control. Curves were plotted with compound concentration and inhibition rate on the horizontal and vertical coordinates, and the curve was fitted using XLFit excel add-in version 4.3.1 software and IC50 was calculated.

Axl = biological target: T1, Axl (Homo sapiens, UniProt P30530); experiment: Axl kinase activity inhibition, Caliper mobility shift assay; assay type: biochemical
T1 sequence (P30530 26-894): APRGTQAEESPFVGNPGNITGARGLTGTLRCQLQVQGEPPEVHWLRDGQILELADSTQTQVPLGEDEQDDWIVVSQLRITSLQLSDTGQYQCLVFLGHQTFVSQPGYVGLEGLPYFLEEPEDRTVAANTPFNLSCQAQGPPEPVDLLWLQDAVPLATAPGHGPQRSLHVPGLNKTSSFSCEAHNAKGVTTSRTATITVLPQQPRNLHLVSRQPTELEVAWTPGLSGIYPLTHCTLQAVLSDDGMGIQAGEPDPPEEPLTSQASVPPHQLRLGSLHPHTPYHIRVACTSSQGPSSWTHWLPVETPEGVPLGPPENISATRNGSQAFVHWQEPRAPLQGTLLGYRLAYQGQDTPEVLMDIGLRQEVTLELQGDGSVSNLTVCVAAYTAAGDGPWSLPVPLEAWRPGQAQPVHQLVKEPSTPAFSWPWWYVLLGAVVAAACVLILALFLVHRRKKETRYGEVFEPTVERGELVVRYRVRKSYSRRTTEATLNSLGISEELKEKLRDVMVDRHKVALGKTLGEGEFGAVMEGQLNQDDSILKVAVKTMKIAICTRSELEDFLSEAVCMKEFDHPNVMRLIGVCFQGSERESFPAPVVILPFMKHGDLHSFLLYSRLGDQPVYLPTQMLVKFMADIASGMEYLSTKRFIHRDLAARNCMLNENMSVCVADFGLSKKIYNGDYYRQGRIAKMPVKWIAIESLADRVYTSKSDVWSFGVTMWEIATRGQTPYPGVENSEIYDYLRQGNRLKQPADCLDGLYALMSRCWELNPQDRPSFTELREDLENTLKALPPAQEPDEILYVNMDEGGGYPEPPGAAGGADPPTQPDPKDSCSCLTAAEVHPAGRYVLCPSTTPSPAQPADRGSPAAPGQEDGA
Procedure: Axl protein kinase activity was determined using the Caliper mobility shift assay. The compound was dissolved in DMSO and diluted with kinase buffer (50 mM HEPES, pH 7.5, 0.0015% Brij-35, 2 mM DTT), and 5 μL of 5 times the final concentration of the compound (10%) was added to the 384-well plate. DMSO). After adding 10 μL of a 2.5-fold Axl enzyme solution, incubate for 10 minutes at room temperature, and then add 10 μL of a 2.5-fold substrate (FAM-labeled polypeptide and ATP) solution. After incubation at 28° C. for 60 minutes, the reaction was stopped by the addition of […] stop solution (100 mM HEPES, 0.015% Brij-35, 0.2% Coating Reagent #3, 50 mM EDTA, pH 7.5). Conversion rate was read on a Caliper EZ Reader II (Caliper Life Sciences). The conversion rate was converted into inhibition rate (% inhibition rate=(max−conversion rate)/(max−min)*100). Where max is the conversion of the DMSO control and min is the conversion of the enzyme-free control. Curves were plotted with compound concentration and inhibition rate on the horizontal and vertical coordinates, and the curve was fitted using XLFit excel add-in version 4.3.1 software and IC50 was calculated.

FLT3 = biological target: T2, FLT3 (Homo sapiens, UniProt P36888); experiment: FLT3 kinase activity inhibition, Caliper mobility shift assay; assay type: biochemical
T2 sequence (P36888 27-993): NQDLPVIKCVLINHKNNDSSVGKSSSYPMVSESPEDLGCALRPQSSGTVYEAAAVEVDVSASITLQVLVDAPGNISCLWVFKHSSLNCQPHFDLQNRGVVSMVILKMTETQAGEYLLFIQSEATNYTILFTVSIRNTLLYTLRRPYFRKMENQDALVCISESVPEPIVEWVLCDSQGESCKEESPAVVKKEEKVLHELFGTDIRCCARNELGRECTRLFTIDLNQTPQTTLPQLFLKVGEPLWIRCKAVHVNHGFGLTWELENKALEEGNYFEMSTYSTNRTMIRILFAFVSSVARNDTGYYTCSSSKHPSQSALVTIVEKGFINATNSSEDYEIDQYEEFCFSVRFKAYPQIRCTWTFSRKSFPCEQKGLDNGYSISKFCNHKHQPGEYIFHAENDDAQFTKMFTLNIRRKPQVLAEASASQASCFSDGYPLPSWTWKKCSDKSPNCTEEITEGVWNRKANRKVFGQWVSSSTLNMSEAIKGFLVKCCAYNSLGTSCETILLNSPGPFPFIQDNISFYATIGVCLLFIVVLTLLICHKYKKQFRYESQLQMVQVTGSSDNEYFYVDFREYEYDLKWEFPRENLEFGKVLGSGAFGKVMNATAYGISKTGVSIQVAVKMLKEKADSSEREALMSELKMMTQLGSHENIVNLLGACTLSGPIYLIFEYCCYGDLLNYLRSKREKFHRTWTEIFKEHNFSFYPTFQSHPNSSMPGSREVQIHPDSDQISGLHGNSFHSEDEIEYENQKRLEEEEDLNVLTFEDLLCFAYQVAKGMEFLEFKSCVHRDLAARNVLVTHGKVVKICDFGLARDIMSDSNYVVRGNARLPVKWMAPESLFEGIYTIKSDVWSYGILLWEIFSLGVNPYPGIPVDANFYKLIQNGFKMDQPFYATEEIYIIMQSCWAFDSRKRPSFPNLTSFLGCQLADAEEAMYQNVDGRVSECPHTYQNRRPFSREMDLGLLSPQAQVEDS
Procedure: FLT3 protein kinase activity was measured using the Caliper mobility shift assay. The compound was dissolved in DMSO and diluted with a kinase buffer (50 mM HEPES, pH 7.5, 0.0015% Brij-35, 2 mM DTT), and 5 μL of a 5-fold final concentration of the compound (10% DMSO) was added to a 384-well plate. After adding 10 μL of 2.5-fold FLT3 enzyme solution, incubate for 10 minutes at room temperature, and then add 10 μL of a 2.5-fold substrate (FAM-labeled polypeptide and ATP) solution. After incubation at 28° C. for 60 minutes, the reaction was stopped by adding 25 μL of stop solution (100 mM HEPES, 0.015% Brij-35, 0.2% Coating Reagent #3, 50 mM EDTA, pH 7.5). Conversion rate data was read on a Caliper EZ Reader II (Caliper Life Sciences). The conversion rate was converted into inhibition rate data (% inhibition rate=(max−conversion rate)/(max−min)*100). Where max is the conversion of the DMSO control and min is the conversion of the enzyme-free control Curves were plotted with compound concentration and inhibition rate on the horizontal and vertical coordinates, and the curve was fitted using XLFit excel add-in version 4.3.1 software and IC50 was calculated.

CDK2/CycA2 = CDK2/CycA2 (Homo sapiens, UniProt P24941); experiment: CDK2 kinase activity inhibition, Caliper mobility shift assay; assay type: biochemical
Procedure: (§1) CDK2/CycA2, CDK4/CycD3 and CDK6/cycD3 protein kinase activities were determined using the Caliper mobility shift assay. The compound was dissolved in DMSO and diluted with kinase buffer (CDK2/CycA2 and CDK6/cycD3 with 50 mM HEPES (pH 7.5), 10 mM MgCl2, 0.0015% Brij-35, and 2 mM dithiothreitol; CDK4/CycD3 with 20 mM HEPES (pH 7.5), 10 mM MgCl2, 0.01% Triton X-100, and 2 mM dithiothreitol), 5 μl of a 5-fold final concentration of the compound (10% DMSO) was added to a 384-well plate. Add 10 μL of 2.5-fold […] enzyme solution and incubate for 10 minutes at room temperature, then add 10 μL of 2.5-fold substrate solution (corresponding enzyme and substrate concentration CDK2/CycA2 12 nM, ATP Kin 39 μM; CDK4/CycD3 10 nM, ATP Km 221 μM; CDK6/cycD3 15 nM, ATP Km […]) Incubate at 28° C. (60 min CDK2, 180 min CDK4, 60 min CDK6) followed by 25 μl stop solution (100 mM HEPES (pH 7.5), 0.015% Brij-35, 0.2% Coating Reagent #3, 50 mM EDTA) Stop the reaction. Conversion rate data was read on a Caliper EZ Reader 11 (Caliper Life Sciences). The conversion rate was converted into inhibition rate data (% inhibition rate=(max−conversion rate)/(max−min)*100) Where max is the conversion of the DMSO control and min is the conversion of the enzyme-free control. Curves were plotted with compound concentration and inhibition rate on the horizontal and vertical coordinates, and the curve was fitted using XLFit excel add-in version 4.3.1 software and IC50 was calculated.

[1] = Pharmacokinetic study in mice, intragastric administration; assay type: in vivo; conditions: mouse, male ICR mice, PO dose 5 mg/kg, plasma
Procedure: Instrument: API4000+LC/MS instrument manufactured by AB Sciex. All measurement data was collected and processed by Analyst 1.6.3 software, and data was calculated and processed by Microsoft Excel. Using the DAS 3.2.8 software, the statistical moment method was used to calculate the pharmacokinetic parameters. t mainly includes kinetic parameters Tmax, T½, Cmax, AUC(0-t) and the like Column: ACQUITY UPLC BEH C18 (2.1 mm×50 mm, 1.7 μm), column temperature 40° C.; mobile phase A is water (0.1% formic acid+5 mM ammonium acetate), mobile phase B is acetonitrile (0.1% acetic acid). The flow rate was 0.30 ml/min and the isocratic elution of 90% B was maintained for 1.5 minutes. Injection volume: 5 μL.
Animals: 12 male ICR mice, weighing 22-26 g, were used after 2 days of feeding in the laboratory of the experimental animal center. They were fasted 12 hours before the administration and 4 hours after the administration, and were free to drink during the test. Mice were randomly divided into four groups of 3 animals each. After intragastric administration, blood samples were taken at two different time points in each group.
Solvent: 0.5% Methylcellulose (aqueous solution containing 0.4% Tween 80). Formulation of intragastric administration solution. The compound is accurately weighed, added to the solvent, and sonicated at room temperature for 5 minutes to completely dissolve the drug to prepare a drug solution of 0.33 mg/ml.
Drug sample: A representative compound of the structure represented by the patent formula (I) of the present invention generally adopts a plurality of samples having similar structures (molecular weight difference of more than 2 units), accurately weighed, and administered together (cassette PK). This allows multiple compounds to be screened simultaneously and their oral absorption rates compared. Single drug administration was also used to study the pharmacokinetics of drug samples in mice.
Blood was taken from the eyelids at 0.25, 0.5, 1, 2, 4, 8, 12, and 24 hours after intragastric administration. In the heparin-treated tube, the supernatant was centrifuged for LC-MS/MS analysis.
Accurately weigh the compounds to different concentrations, perform quantitative analysis on the mass spectrometer to establish a standard curve, and then test the concentration of the compound in the above plasma to obtain the concentration of the compound at different time points. All the measured data were collected and processed by the relevant software, and the statistical moment method was used to calculate the pharmacokinetic parameters (mainly including the kinetic parameters Tmax, T1/2, Cmax, AUC(0-t), etc.).

CDK6/cycD3 = CDK6/cycD3 (Homo sapiens, UniProt Q00534); experiment: CDK6 kinase activity inhibition, Caliper mobility shift assay; assay type: biochemical
Procedure: as §1

CDK4/CycD3 = CDK4/CycD3 (Homo sapiens, UniProt P11802); experiment: CDK4 kinase activity inhibition, Caliper mobility shift assay; assay type: biochemical
Procedure: as §1

Sequence of FAK (Q05397 whole entry, species assumed): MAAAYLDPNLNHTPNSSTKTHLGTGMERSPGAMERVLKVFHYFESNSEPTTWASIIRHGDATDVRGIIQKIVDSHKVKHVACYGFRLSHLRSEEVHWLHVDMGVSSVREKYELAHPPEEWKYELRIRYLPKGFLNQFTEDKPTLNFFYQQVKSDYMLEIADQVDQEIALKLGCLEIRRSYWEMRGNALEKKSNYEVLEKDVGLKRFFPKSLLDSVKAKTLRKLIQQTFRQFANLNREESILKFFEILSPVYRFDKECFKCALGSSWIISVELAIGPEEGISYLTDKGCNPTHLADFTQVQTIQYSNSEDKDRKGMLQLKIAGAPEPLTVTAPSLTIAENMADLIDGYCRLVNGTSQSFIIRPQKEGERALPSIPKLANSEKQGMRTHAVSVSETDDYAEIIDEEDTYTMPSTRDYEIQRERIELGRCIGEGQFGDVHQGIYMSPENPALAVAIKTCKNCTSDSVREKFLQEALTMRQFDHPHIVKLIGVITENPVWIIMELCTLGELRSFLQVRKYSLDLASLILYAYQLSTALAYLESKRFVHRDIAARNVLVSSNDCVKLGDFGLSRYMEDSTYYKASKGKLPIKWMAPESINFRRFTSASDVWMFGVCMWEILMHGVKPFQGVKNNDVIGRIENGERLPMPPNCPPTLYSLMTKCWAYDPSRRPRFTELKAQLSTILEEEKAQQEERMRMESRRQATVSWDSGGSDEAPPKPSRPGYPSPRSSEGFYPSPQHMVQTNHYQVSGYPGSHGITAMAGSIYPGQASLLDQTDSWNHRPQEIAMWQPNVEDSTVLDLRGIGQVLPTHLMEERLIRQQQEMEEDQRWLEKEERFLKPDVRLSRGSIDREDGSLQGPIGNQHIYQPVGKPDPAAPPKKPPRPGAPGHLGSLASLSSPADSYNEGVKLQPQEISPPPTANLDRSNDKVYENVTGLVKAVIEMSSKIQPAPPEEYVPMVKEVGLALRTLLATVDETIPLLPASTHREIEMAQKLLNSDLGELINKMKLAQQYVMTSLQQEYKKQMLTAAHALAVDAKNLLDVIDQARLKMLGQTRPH
Sequence of CDK6/cycD3 (Q00534 whole entry, species assumed): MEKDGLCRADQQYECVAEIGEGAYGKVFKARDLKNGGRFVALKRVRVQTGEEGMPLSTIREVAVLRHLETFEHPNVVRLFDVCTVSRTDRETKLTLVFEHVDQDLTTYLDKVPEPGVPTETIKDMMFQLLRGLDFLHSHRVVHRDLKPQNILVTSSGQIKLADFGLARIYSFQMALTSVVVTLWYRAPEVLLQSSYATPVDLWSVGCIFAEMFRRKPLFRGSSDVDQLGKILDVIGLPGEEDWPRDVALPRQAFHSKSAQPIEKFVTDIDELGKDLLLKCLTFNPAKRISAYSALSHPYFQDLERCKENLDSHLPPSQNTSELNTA
Sequence of CDK6/cycD3 (P30281 whole entry partner, species assumed): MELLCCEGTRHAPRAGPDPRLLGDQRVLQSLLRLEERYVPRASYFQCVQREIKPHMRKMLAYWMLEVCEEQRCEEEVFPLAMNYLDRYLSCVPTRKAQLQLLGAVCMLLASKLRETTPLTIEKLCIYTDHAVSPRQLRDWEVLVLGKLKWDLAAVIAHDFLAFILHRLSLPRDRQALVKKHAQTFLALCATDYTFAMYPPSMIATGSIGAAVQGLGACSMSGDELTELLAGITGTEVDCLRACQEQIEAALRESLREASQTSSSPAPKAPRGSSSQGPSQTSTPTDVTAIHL
Sequence of CDK4/CycD3 (P11802 whole entry, species assumed): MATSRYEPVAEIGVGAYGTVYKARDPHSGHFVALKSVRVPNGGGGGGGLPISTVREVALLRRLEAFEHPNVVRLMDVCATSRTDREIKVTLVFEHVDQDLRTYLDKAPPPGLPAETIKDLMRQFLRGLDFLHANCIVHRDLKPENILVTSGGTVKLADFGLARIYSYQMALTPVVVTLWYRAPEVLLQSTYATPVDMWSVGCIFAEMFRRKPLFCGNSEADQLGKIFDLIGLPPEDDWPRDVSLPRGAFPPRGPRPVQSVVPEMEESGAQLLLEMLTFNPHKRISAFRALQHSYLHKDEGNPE
Sequence of CDK4/CycD3 (P30281 whole entry partner, species assumed): as the sequence (P30281 whole entry partner, species assumed) above

Compound	IC50 (FAK) [nM]	IC50 (Axl) [nM]	IC50 (FLT3) [nM]	further results
CNC(=O)c1ccccc1Nc1cc(Nc2ccc3c(c2)OCC2COCCN32)ncc1C(F)(F)F (stereo not shown) [Compound E1]	< 1	–	–	–
CNC(=O)c1ccccc1Nc1cc(Nc2ccc3c(c2)OC[C@@H]2CN(C)CCN32)ncc1C(F)(F)F [Compound E1S]	< 1	–	–	–
CCc1nc(C(N)=O)c(Nc2ccc3c(c2)OC[C@H]2CN(C4CCN(C)CC4)CCN32)nc1NC1CCOCC1 [Compound D6R]	–	< 10	< 1	–
CCc1nc(C(N)=O)c(Nc2ccc3c(c2)OC[C@H]2CN(C)CCN32)nc1NC1CCOCC1 [Compound D1R]	–	< 10	< 1	–
CCc1nc(C(N)=O)c(Nc2ccc3c(c2)OC[C@@H]2CN(C)CCN32)nc1NC1CCOCC1 [Compound D1S]	–	< 10	< 1	–
CNC(=O)c1ccccc1Nc1cc(Nc2ccc3c(c2)OC[C@H]2CN(C)CCN32)ncc1C(F)(F)F [Compound E1R]	< 1	–	–	–
Cc1nc2c(F)cc(-c3nc(Nc4ccc5c(c4)OC[C@H]4CN(C6CCOCC6)CCN54)ncc3F)cc2n1C(C)C [Compound B2R]	–	–	–	IC50 (CDK2/CycA2): < 10 nM; Cmax [1]: 495 ng/mL; Tmax [1]: 1 h; half-life [1]: 5.72 h; AUC(0-t) ([1]; read-out: AUC(0-24)): 2200 ng·h/mL; IC50 (CDK6/cycD3): < 50 nM; IC50 (CDK4/CycD3): < 10 nM
